Laboratory results reported in patent US20030096733A1, “Novel drug targets for arthritis” (Omnio AB, priority 2001, published 2003).
Structures can show the parent of a compound that is named as a salt. Residues, ends and D or L forms follow the SMILES beside them.

Assays:
plasmin [1] = molecular target: T1, plasmin (Homo sapiens, UniProt P00747); conditions: chromogenic substrate; cited from earlier work
T1 construct: After the cleavage, plasmin is an active two-chain disulfide linked molecule

human uPA = human uPA (Homo sapiens, UniProt P00749); conditions: read-out: Km for human uPA; chromogenic substrate; cited from earlier work
CIA-sensitive mice [2] = assay: Aprotinin treatment of CIA-sensitive mice, arthritis induced by rat collagen II; assay type: in vivo; conditions: 0.5 ml aprotinin w/o emulsion i.p. every 72 hr; collagen II induction
Text: (§1) To test potential drug candidates, arthritis is induced in CIA-sensitive mice either by immunization with collagen type II (CIA) or, alternatively, by use of monoclonal antibodies.
(§2) The present example describes treatment of CIA-sensitive mice with aprotinin (Trasylol; Bayer). Trasylol is an inhibitor of plasmin and thereby, according to the invention, a candidate drug for treating arthritis.
(§3) Since aprotinin has a rather short half life in mice, a sustained release system for Trasylol is used. An exemplary system based on water/oil (w/o) emulsions where aprotinin is incorporated is described in detail by Bjerregaard et al. (Journal of Controlled release 2001; 71:87-98).
CIA induction using Collagen-II. Collagen-induced arthritis (CIA) is induced in mice with Rat collagen II, which is prepared from the Swarm chondrosarcoma after pepsin digestion, as previously described (Andersson and Holmdahl, Eur J Immunol 1990;20:1061-1066). Collagen II is dissolved at a concentration of 2 mg/ml in 0.1 M acetic acid and stored at 4° C. Arthritis is induced by intrademal injection at the basis of the tail with […] of […] rat collagen II emulsified with an equal volume of complete Freund's adjuvant (CFA, with Mycobacterium butyricum; Difco, Detroit, Mich.). […]

CIA-sensitive mice [3] = assay: Aprotinin treatment of CIA-sensitive mice, arthritis induced by monoclonal antibodies C1 and M2139; assay type: in vivo; conditions: 0.5 mL aprotinin w/o emulsion i.p. every 72 hours; monoclonal antibody induction
Text: as §1
Using monoclonal antibodies to induce CIA has an advantage in that it allows for better control of the induction.
as §2, §3
The mice are injected intraperitoneally with 0.5 mL aprotinin emulsion, containing 30% w/w disperse phase with 87 mg aprotinin per ml aqueous phase (corresponding to a dose of approximately 85,000 KIU (“kallikrein-inactivator units”) aprotinin, using a Hamilton syringe 21 G needle. (It is also possible to carry out controlled administration of aprotinin via an osmotic pump.) The injection is repeated every 72 hours.
CIA induction using monoclonal antibodies. […] The development of arthritis is evaluated with the clinical grading system described in Example 1. […]

[4] = cited from earlier work
plasmin [5] = molecular target: T1, plasmin; conditions: cited from earlier work
[6] = tested on: plasminogen deficient mice; assay: Restoration of plasminogen in plasminogen deficient mice, arthritis induced by collagen II monoclonal antibody cocktail; assay type: in vivo
Method: Induction of arthritis using monoclonal antibodies directed against collagen type II. A battery of monoclonal antibodies against collagen type II were produced by standard procedures. Induction of arthritis was performed by intravenous injection of a cocktail of two antibodies denoted C1 and M2139 at day 0. Five days later (day 5), lipopolysacchride was injected intraperitoneally to enhance the immune response. The development of arthritis was evaluated with a previously described clinical grading system.
Clinical grading evaluation of arthritis. The development of arthritis was tracked using a scoring system which defines one inflamed toe or knuckle as 1 point and one inflamed wrist or ankle as […], resulting in a score of 0-15 points for each paw and 0-60 points per mouse. Deformed or swollen without redness is not included in this system.
Induction of arthritis in plasminogen deficient mice by restoration of plasminogen. 100 μl of human plasminogen, at a concentration of 10 mg/ml, was injected intravenously into the plasminogen deficient mice every 24 hours in order to restore the serum plasminogen level. 12 hours after the first injection of plasminogen, three groups of mice, plg-wildtype, plg-heterozygous, plg-deficient were again injected with plasminogen before arthritis was induced using the Collagen II monoclonal antibody cocktails as described above. The development of arthritis was followed by the clinical scoring system.

Molecule: CC(C)C[C@H](NC(=O)[C@H](N)C(C)C)C(=O)N[C@@H](CCCCN)C(=O)Nc1ccc([N+](=O)[O-])cc1 [S-2251, H-D-Valyl-L-leucyl-L-lysine-p-nitroaniline dihydrochloride] (HELM PEPTIDE1{[dV].L.K.[O=[N+]([O-])c1ccc(N[*:1])cc1]}$$$$V2.0)
- Km (plasmin [1]): 300 µM

Molecule: L-pyroglutamyl-glycyl-L-arginine-p-nitroaniline hydrochloride [S-2444]
- Km (human uPA): 90 µM

Molecule: aprotinin
- incidence of the CIA vs control mice (CIA-sensitive mice [2]): lower
- severity of the CIA vs control mice (CIA-sensitive mice [2]): lower
- incidence of the CIA vs control mice (CIA-sensitive mice [3]): lower
- severity of the CIA vs control mice (CIA-sensitive mice [3]): lower
- half life in mice [4]: rather short

B1: α2AP: single-chain glycoprotein, physiological inhibitor of plasmin (protein, UniProt P08697 40-491, looked up)
Alpha-2-antiplasmin: NQEQVSPLTLLKLGNQEPGGQTALKSPPGVCSRDPTPEQTHRLARAMMAFTADLFSLVAQTSTCPNLILSPLSVALALSHLALGAQNHTLQRLQQVLHAGSGPCLPHLLSRLCQDLGPGAFRLAARMYLQKGFPIKEDFLEQSEQLFGAKPVSLTGKQEDDLANINQWVKEATEGKIQEFLSGLPEDTVLLLLNAIHFQGFWRNKFDPSLTQRDSFHLDEQFTVPVEMMQARTYPLRWFLLEQPEIQVAHFPFKNNMSFVVLVPTHFEWNVSQVLANLSWDTLHPPLVWERPTKVRLPKLYLKHQMDLVATLSQLGLQELFQAPDLRGISEQSLVVSGVQHQSTLELSEVGVEAAAATSIAMSRMSLSSFSVNRPFLFFIFEDTTGLPLFVGSVRNPNPSAPRELKEQQDSPGNKDFLQSLKGFPRGDKLFGPDLKLVPPMEEDYPQFGSPK
- second-order rate constant of inhibition of plasmin (plasmin [5]): above 10^7 M^−1s^−1

B2: Human plasminogen: human plasminogen injected intravenously into plasminogen deficient mice to restore the serum plasminogen level (protein)
chain: MEHKEVVLLLLLFLKSGQGEPLDDYVNTQGASLFSVTKKQLGAGSIEECAAKCEEDEEFTCRAFQYHSKEQQCVIMAENRKSSIIIRMRDVVLFEKKVYLSECKTGNGKNYRGTMSKTKNGITCQKWSSTSPHRPRFSPATHPSEGLEENYCRNPDNDPQGPWCYTTDPEKRYDYCDILECEEECMHCSGENYDGKISKTMSGLECQAWDSQSPHAHGYIPSKFPNKNLKKNYCRNPDRELRPWCFTTDPNKRWELCDIPRCTTPPPSSGPTYQCLKGTGENYRGNVAVTVSGHTCQHWSAQTPHTHNRTPENFPCKNLDENYCRNPDGKRAPWCHTTNSQVRWEYCKIPSCDSSPVSTEQLAPTAPPELTPVVQDCYHGDGQSYRGTSSTTTTGKKCQSWSSMTPHRHQKTPENYPNAGLTMNYCRNPDADKGPWCFTTDPSVRWEYCNLKKCSGTEASVVAPPPVVLLPDVETPSEEDCMFGNGKGYRGKRATTVTGTPCQDWAAQEPHRHSIFTPETNPRAGLEKNYCRNPDGDVGGPWCYTTNPRKLYDYCDVPQCAAPSFDCGKPQVEPKKCPGRVVGGCVAHPHSWPWQVSLRTRFGMHFCGGTLISPEWVLTAAHCLEKSPRPSSYKVILGAHQEVNLEPHVQEIEVSRLFLEPTRKDIALLKLSSPAVITDKVIPACLPSPNYVVADRTECFITGWGETQGTFGAGLLKEAQLPVIENKVCNRYEFLNGRVQSTELCAGHLAGGTDSCQGDSGGPLVCFEKDKYILQGVTSWGLGCARPNKPGVYVRVSRFVTWIEGVMRNN
- plasminogen deficient mice that developed joint inflammation ([6]; five days after the cocktail injection, human plasminogen injected 12 hours before challenge): 3 out of 4
- Arthritic score ([6]; plg −/− mice, human plasminogen i.v. every 24 hours, anti-collagen II monoclonal antibody cocktail, clinical score 0-60 points per mouse): 6.7 ± 2.9
- Incidence of RA ([6]; plg −/− mice, human plasminogen i.v. every 24 hours, anti-collagen II monoclonal antibody cocktail, mice affected/total): 3/4
